Patent publication US20150374767A1, “Treatment of Cancer” (priority 2013, published 2015)
pIC50: −log10 of the molar value. Where two headings read alike, the source gives them in different places.

Columns and labels:
IR = IR (Homo sapiens, UniProt P06213); conditions: cited from earlier work
Flt3^D835Y = Flt3^D835Y (Homo sapiens, UniProt P36888, D835Y); conditions: cited from earlier work
U87 = format: cell-based, human
SKOV3 [1] = format: cell-based, human
non-sensitive cells = conditions: read-out: IC50 for non-sensitive cells, previously reported; cited from earlier work
Virttu cell line panel = assay: cells; format: cell-based; conditions: Homo sapiens
SPC111 = assay: combination with HSV1716, Chou-Talalay, SPC111; format: cell-based, human; conditions: for synergy/antagonism with HSV1716 on cell death (Chou-Talalay): SPC111, HSV1716 moi 0.5 and 0.05, 72 hours
HuH7 = format: cell-based, human
Virttu cell panel = assay: combination with HSV1716, DCP cell death, Chou-Talalay analysis, cell panel; format: cell-based, human; conditions: for number of cell lines tested in which antagonism was detected: drug + HSV1716 moi 0.5 and 0.05, cell death by DCP after 72 hours
Hep3B = format: cell-based, human
A431 cells [2] = conditions: read-out: IC50 in A431 cells, previously reported; cited from earlier work
[3] = test system: EGFR- or ErbB2-overexpressing cells; conditions: read-out: IC50, growth of EGFR- or ErbB2-overexpressing cells; cited from earlier work
UVW = format: cell-based, human
A431 = format: cell-based, human
[4] = test system: cells expressing low levels of EGFR or ErbB2; conditions: read-out: IC50, cells expressing low levels of EGFR or ErbB2; cited from earlier work
A431 cells [5] = assay: cells; conditions: Homo sapiens, A-431, 72 h, read-out: IC50 (DCP leakage)
[6] = test system: human gastric carcinoma xenograft; assay: patient-derived human gastric carcinoma xenograft model; set-up: species or system mice; conditions: mouse, in vivo
Protocol: HSV1716 (Seprehvir) was used in a personalised oncology study. Patient-derived tumour samples were obtained from a gastric carcinoma. There have been no previous in vitro or in vivo pre-clinical studies with Seprehvir in human gastric carcinoma cells/xenografts. Seprehvir was stored at −70° C., and multiple vials were provided to avoid repeated freeze/thawing.
Two groups of 3 mice with gastric carcinoma implants were treated with 2×10^6 pfu Seprehvir by either intratumoural (IT) or intravenous (IV) routes of administration. Control mice (n=3) received no treatment and in these mice the implants grew rapidly and all were sacrificed within 18 days (FIG. 61). For IV injection, Seprehvir was administered on days 0, 3, 10 and 18, at which point the tumors were too large and the mice were sacrificed.
For IT injection of Seprehvir, 2×10^6 pfu was administered on days 0, 3, 10, 18, 21 and 25.
. Control mice (n=3) received no treatment and in these mice the implants grew rapidly and all were sacrificed within 18 days (FIG. 62). […]. A follow-on study with HSV1716 administering more frequent by IV dosing at the higher concentration of 10^7 pfu was performed using the same human gastric carcinoma xenograft model. […].
Groups of 3 mice received IV injection of HSV1716 at 1×10^7 pfu on days 1, 3, 5, 8, 10, 12, 15, 17 and 19. […]

UVW cells = assay: DCP cell death assay, drug alone, UVW; format: cell-based; conditions: Homo sapiens, 72 hrs, read-out: IC50 (DCP leakage)
[7] = test system: breast carcinoma and melanoma cell lines; conditions: read-out: IC50 in breast carcinoma and melanoma cell lines, reported; cited from earlier work
SKOV3 [8] = assay: DCP cell death assay, drug alone, SKOV3; format: cell-based; conditions: Homo sapiens, SK-OV-3; SKOV3, 72 hrs; read-out: IC50 (DCP leakage)
One58 = format: cell-based, human
CP70 = format: cell-based, human
SPC-111 = assay: DCP cell death assay, drug alone, SPC-111; format: cell-based; conditions: Homo sapiens; SPC-111, 72 hrs; read-out: IC50 (DCP leakage)
Ovcar3 [9] = assay: DCP cell death assay, drug alone, Ovcar3; format: cell-based; conditions: Homo sapiens, OVCAR-3; Ovcar3, 72 hrs; read-out: IC50 (DCP leakage)
HSV1716gfp = assay: GFP expression during infection with HSV1716gfp (drug toxicity to virus); format: cell-based, herpes simplex virus
RCC cell lines = conditions: read-out: IC50 in RCC cell lines, reported; cited from earlier work
VEGFR3 = VEGFR3 (Homo sapiens, UniProt P35916); conditions: cited from earlier work
Sequence of VEGFR3 (P35916 25-1363): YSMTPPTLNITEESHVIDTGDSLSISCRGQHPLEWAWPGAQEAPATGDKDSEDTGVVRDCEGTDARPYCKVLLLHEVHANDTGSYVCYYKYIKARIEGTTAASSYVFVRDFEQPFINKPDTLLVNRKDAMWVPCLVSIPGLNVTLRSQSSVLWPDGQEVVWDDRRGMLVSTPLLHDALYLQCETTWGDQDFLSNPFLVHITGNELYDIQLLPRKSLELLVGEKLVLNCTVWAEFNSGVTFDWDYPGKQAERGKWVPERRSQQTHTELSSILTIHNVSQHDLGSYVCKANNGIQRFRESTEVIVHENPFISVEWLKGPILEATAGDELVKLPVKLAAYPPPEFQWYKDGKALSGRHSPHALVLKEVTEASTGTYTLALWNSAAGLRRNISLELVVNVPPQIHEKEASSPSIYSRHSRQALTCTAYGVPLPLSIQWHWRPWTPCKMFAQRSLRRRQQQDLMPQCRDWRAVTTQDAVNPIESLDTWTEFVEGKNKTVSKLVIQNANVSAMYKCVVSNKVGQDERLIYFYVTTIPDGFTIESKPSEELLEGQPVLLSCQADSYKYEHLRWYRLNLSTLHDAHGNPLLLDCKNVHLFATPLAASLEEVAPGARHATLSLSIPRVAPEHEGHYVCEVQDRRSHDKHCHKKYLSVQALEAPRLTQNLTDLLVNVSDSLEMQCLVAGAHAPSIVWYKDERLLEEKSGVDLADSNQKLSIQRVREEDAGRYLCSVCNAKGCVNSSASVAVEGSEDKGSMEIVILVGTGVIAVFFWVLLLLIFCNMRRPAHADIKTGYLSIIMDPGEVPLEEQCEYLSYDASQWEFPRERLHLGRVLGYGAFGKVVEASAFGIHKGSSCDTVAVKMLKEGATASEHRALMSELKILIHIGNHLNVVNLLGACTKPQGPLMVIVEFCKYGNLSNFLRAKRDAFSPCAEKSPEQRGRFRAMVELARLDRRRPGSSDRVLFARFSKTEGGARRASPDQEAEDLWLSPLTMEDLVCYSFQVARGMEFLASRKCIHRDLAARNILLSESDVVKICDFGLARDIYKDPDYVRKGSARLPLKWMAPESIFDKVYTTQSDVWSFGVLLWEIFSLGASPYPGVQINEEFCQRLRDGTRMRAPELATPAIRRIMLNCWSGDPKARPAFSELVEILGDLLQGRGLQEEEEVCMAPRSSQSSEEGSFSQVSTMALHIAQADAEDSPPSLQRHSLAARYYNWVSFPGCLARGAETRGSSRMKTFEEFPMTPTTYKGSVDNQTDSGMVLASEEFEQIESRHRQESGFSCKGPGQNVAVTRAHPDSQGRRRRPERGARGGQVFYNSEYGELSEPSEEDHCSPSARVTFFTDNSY

HCC cell lines = format: cell-based, human
HCC = conditions: monotherapy of HCC; cited from earlier work
HepG2-luc = format: cell-based, human
Ovcar3 [10] = format: cell-based, human

Sequence of IR (P06213 28-1382): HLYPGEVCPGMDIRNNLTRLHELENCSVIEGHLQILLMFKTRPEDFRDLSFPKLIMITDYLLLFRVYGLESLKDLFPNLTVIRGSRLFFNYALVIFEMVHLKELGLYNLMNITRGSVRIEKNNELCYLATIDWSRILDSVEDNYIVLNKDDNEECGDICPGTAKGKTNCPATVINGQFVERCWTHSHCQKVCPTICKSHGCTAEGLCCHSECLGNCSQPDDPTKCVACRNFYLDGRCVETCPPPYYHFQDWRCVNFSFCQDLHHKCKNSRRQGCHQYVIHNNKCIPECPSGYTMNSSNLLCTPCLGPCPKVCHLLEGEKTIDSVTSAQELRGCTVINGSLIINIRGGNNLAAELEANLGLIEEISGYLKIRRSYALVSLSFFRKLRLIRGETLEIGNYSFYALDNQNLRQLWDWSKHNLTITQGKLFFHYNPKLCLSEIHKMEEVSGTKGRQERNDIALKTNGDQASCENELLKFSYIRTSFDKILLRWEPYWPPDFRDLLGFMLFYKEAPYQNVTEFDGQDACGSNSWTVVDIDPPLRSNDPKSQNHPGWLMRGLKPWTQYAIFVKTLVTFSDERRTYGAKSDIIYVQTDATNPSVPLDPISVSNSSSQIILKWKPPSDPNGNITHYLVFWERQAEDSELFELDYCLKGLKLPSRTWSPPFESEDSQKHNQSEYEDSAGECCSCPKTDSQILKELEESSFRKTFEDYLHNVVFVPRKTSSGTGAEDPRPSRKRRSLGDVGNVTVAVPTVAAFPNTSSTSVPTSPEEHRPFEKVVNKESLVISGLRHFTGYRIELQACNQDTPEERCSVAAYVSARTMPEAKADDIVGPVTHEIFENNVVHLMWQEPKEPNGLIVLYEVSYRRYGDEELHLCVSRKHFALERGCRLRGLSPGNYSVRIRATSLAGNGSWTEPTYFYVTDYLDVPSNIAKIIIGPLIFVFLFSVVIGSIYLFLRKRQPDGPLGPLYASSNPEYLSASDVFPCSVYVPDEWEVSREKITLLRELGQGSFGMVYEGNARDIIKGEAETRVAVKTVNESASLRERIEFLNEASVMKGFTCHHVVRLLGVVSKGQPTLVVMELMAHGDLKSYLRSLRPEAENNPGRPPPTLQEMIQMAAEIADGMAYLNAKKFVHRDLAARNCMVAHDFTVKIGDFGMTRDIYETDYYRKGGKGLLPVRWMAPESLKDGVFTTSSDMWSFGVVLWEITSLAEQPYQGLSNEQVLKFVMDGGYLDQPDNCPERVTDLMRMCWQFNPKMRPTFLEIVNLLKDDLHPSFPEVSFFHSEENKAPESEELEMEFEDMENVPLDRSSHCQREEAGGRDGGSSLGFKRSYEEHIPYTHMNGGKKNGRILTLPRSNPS

Question: With `CC(C)(C)c1cc(C=C(C#N)C#N)cc(Br)c1O` [AG-1024, 2-(3-bromo-5-tert-butyl-4-hydroxybenzylidene)malononitrile] as the molecule, how does the pIC50 (IR) read?
Answer: 7.00

Question: With `S=C(NCc1ccc2c(c1)OCO2)N1CCN(c2ncnc3c2oc2ccccc23)CC1` [Amuvatinib, N-(benzo[d][1,3]dioxol-5-ylmethyl)-4-(benzofuro[3,2-d]pyrimidin-4-yl)piperazine-1-carbothioamide] as the molecule, how does the pIC50 (Flt3^D835Y) read?
Answer: 7.09

Question: Which “synergy/antagonism with HSV1716 on cell death (Chou-Talalay)” value (from here on “synergy/antagonism … (Chou-Talalay)”) (U87) does the source give for `C#Cc1cccc(Nc2ncnc3cc(OCCOC)c(OCCOC)cc23)c1` [Erlotinib, N-(3-ethynylphenyl)-6,7-bis(2-methoxyethoxy)quinazolin-4-amine] here?
Answer: synergistic

Question: What about the “number of synergistic combinations out of 8” value (from here on “number … of 8”) (SKOV3 [1]) of the same molecule?
Answer: 1/8

Question: What about the “synergy/antagonism … (Chou-Talalay)” value (SKOV3 [1]) of the same molecule?
Answer: limited synergy

Question: What about the pIC50 (non-sensitive cells) of the same molecule?
Answer: < 5.00

Question: And the pIC50 (Virttu cell line panel; A-431, all other cell lines (other than A431), 72 hours, read-out: IC50 (DCP leakage), range)?
Answer: 4.60 to 6.00

Question: What about the “synergy/antagonism … (Chou-Talalay)” value (SPC111) of the same molecule?
Answer: limited synergy

Question: What about the “number … of 8” value (SPC111; SPC111, synergy at moi 0.05) of the same molecule?
Answer: 1/8

Question: What about the “number … of 8” value (HuH7) of the same molecule?
Answer: 1/8

Question: What about the “synergy/antagonism … (Chou-Talalay)” value (HuH7) of the same molecule?
Answer: limited synergy

Question: What about the “overall synergy/antagonism with HSV1716 on cell death” value (Virttu cell panel) of the same molecule?
Answer: mostly antagonistic

Question: And the “number of cell lines tested in which antagonism was detected” value (Virttu cell panel)?
Answer: 9 out of 10

Question: With `CS(=O)(=O)CCNCc1ccc(-c2ccc3ncnc(Nc4ccc(OCc5cccc(F)c5)c(Cl)c4)c3c2)o1` [Lapatinib, N-[3-chloro-4-[(3-fluorophenyl)methoxy]phenyl]-6-[5-[(2-methylsulfonylethylamino)methyl]-2-furyl]quinazolin-4-amine] as the molecule, how does the “number … of 8” value (U87) read?
Answer: 2/8

Question: What about the “synergy/antagonism … (Chou-Talalay)” value (U87) of the same molecule?
Answer: some synergy

Question: What about the “synergy/antagonism … (Chou-Talalay)” value (Hep3B) of the same molecule?
Answer: strongly synergistic

Question: And the pIC50 (Virttu cell line panel; A-431, 72 h, read-out: IC50 (DCP leakage), range)?
Answer: 4.52 to 5.40

Question: And the pIC50 (A431 cells [2])?
Answer: 6.80

Question: What about the pIC50 [3] of the same molecule?
Answer: 6.68 to 7.05

Question: What about the “synergy/antagonism … (Chou-Talalay)” value (UVW) of the same molecule?
Answer: strongly synergistic

Question: And the “number of cell lines tested in which antagonism was detected” value (Virttu cell panel)?
Answer: 8 of the 10

Question: And the “number … of 8” value (A431)?
Answer: 1/8

Question: And the “synergy/antagonism … (Chou-Talalay)” value (A431)?
Answer: some synergy

Question: And the pIC50 [4]?
Answer: 4.92 to 5.52

Question: And the pIC50 (A431 cells [5])?
Answer: 6.82

Question: What about the tumour growth inhibition [6] of the same molecule?
Answer: some tumour growth inhibition until day 6

Question: With `Cc1ccc(Nc2nccc(N(C)c3ccc4c(C)n(C)nc4c3)n2)cc1S(N)(=O)=O` [Pazopanib, 5-[[4-[(2,3-Dimethyl-2H-indazol-6-yl)methylamino]-2-pyrimidinyl]amino]-2-methylbenzolsulfonamide] as the molecule, how does the pIC50 (UVW cells) read?
Answer: 6.52

Question: What about the pIC50 [7] of the same molecule?
Answer: 5.00 to 6.00

Question: What about the pIC50 (SKOV3 [8]) of the same molecule?
Answer: 4.40

Question: And the “synergy/antagonism … (Chou-Talalay)” value (One58)?
Answer: synergistic

Question: What about the “synergy/antagonism … (Chou-Talalay)” value (CP70) of the same molecule?
Answer: synergistic

Question: What about the pIC50 (Virttu cell line panel; Hep3B, HuH7, HepG2-luc, CP70, U87 and One58, 72 hrs, read-out: IC50 (DCP leakage), range) of the same molecule?
Answer: 4.74 to 5.52

Question: What about the “synergy/antagonism … (Chou-Talalay)” value (SPC111) of the same molecule?
Answer: limited synergy

Question: And the pIC50 (SPC-111)?
Answer: 4.40

Question: What about the pIC50 (Ovcar3 [9]) of the same molecule?
Answer: 4.40

Question: And the “effect on GFP expression during HSV1716gfp infection” value (“effect” below) (HSV1716gfp; CP70, moi 0.5 and 0.05, 72 hrs)?
Answer: stimulated GFP expression

Question: What about the “effect” value (HSV1716gfp; HepG2-luc, both moi (0.5 and 0.05), 72 hrs) of the same molecule?
Answer: little effect on GFP expression

Question: And the “effect” value (HSV1716gfp; HuH7, moi 0.05, 72 hrs)?
Answer: more potent inhibitory effect

Question: And the “effect” value (HSV1716gfp; HuH7, moi 0.5, 72 hrs)?
Answer: inhibited GFP expression

Question: What about the “effect” value (HSV1716gfp; One58, moi 0.05, 72 hrs) of the same molecule?
Answer: more potent inhibitory effect

Question: And the “effect” value (HSV1716gfp; One58, moi 0.5, 72 hrs)?
Answer: inhibited GFP expression

Question: And the “effect” value (HSV1716gfp; Ovcar3, moi 0.05, 72 hrs)?
Answer: more potent inhibitory effect

Question: And the “effect” value (HSV1716gfp; Ovcar3, moi 0.5, 72 hrs)?
Answer: inhibited GFP expression

Question: And the “effect” value (HSV1716gfp; SKOV3, moi 0.05, 72 hrs)?
Answer: no inhibitory effects

Question: What about the “effect” value (HSV1716gfp; SKOV3, moi 0.5, 72 hrs) of the same molecule?
Answer: inhibited GFP expression

Question: What about the “effect” value (HSV1716gfp; UVW, moi 0.05, 72 hrs) of the same molecule?
Answer: no inhibitory effects

Question: And the “effect” value (HSV1716gfp; UVW, moi 0.5, 72 hrs)?
Answer: inhibited GFP expression

Question: What about the “synergy/antagonism … (Chou-Talalay)” value (HuH7) of the same molecule?
Answer: limited synergy

Question: What about the “number of cell lines tested with clear synergy signals / synergism with HSV1716” value (Virttu cell panel) of the same molecule?
Answer: 7/9

Question: And the pIC50 (RCC cell lines)?
Answer: 4.22 to 4.52

Question: With `CCn1c(N)c(C(=O)NC)c(=O)c2ccc(C#C[C@@](C)(O)COC)nc21` [SAR131675, (R)-2-amino-1-ethyl-7-(3-hydroxy-4-methoxy-3-methylbut-1-ynyl)-N-methyl-4-oxo-1,4-dihydro-1,8-naphthyridine-3-carboxamide] as the molecule, how does the pIC50 (VEGFR3) read?
Answer: 7.70

Question: With `CNC(=O)c1cc(Oc2ccc(NC(=O)Nc3ccc(Cl)c(C(F)(F)F)c3)cc2)ccn1` [Sorafenib, 4-[4-[[4-chloro-3-(trifluoromethyl)phenyl]carbamoylamino]phenoxy]-N-methyl-pyridine-2-carboxamide] as the molecule, how does the “synergy with HSV1716 on cell death (Chou-Talalay)” value (HCC cell lines) read?
Answer: strongly synergistic

Question: What about the pIC50 (UVW cells) of the same molecule?
Answer: 7.00

Question: And the “prolongation of median survival and time to progression” value (HCC)?
Answer: ~3 months

Question: And the “reduction of the risk of death during year 1” value (HCC)?
Answer: 31%

Question: And the “synergy/antagonism … (Chou-Talalay)” value (Hep3B)?
Answer: synergistically

Question: What about the “synergy/antagonism … (Chou-Talalay)” value (One58) of the same molecule?
Answer: no synergies

Question: What about the “synergy/antagonism … (Chou-Talalay)” value (HepG2-luc) of the same molecule?
Answer: synergistically

Question: And the “synergy/antagonism … (Chou-Talalay)” value (CP70)?
Answer: synergies occurred

Question: What about the pIC50 (Virttu cell line panel; most/all cell lines of panel, 72 hrs, read-out: IC50 (DCP leakage), range over cell lines) of the same molecule?
Answer: 5.00 to 6.00

Question: What about the “synergy/antagonism … (Chou-Talalay)” value (UVW) of the same molecule?
Answer: no synergies

Question: What about the “effect” value (HSV1716gfp; CP70, moi 0.05, 72 hrs) of the same molecule?
Answer: more marked inhibitory effect

Question: What about the “effect” value (HSV1716gfp; Hep3B, moi 0.05, 72 hrs) of the same molecule?
Answer: more marked inhibitory effect

Question: What about the “effect” value (HSV1716gfp; HuH7, moi 0.05, 72 hrs) of the same molecule?
Answer: small inhibitory effect at the 2.5 μM Sorafenib concentration

Question: And the “effect” value (HSV1716gfp; One58, moi 0.05, 72 hrs)?
Answer: more marked inhibitory effect

Question: And the “effect” value (HSV1716gfp; Ovcar3, moi 0.05, 72 hrs)?
Answer: more marked inhibitory effect

Question: And the “effect” value (HSV1716gfp; SKOV3, moi 0.05, 72 hrs)?
Answer: no effect on GFP expression

Question: And the “effect” value (HSV1716gfp; SPC111, moi 0.05, 72 hrs)?
Answer: more marked inhibitory effect

Question: And the “effect” value (HSV1716gfp; U87, moi 0.05, 72 hrs)?
Answer: small inhibitory effect at the 2.5 μM Sorafenib concentration

Question: And the “effect” value (HSV1716gfp; UVW, moi 0.05, 72 hrs)?
Answer: no effect on GFP expression

Question: What about the “effect” value (HSV1716gfp; all cell lines tested, moi 0.5, 72 hrs) of the same molecule?
Answer: little effect on GFP expression

Question: And the “synergy/antagonism … (Chou-Talalay)” value (HuH7)?
Answer: synergistically

Question: What about the “number of cell lines tested with clear synergy signals / synergism with HSV1716” value (Virttu cell panel) of the same molecule?
Answer: 8/10

Question: And the “synergy/antagonism … (Chou-Talalay)” value (Ovcar3 [10])?
Answer: synergies occurred
